# Species on record: Rattus norvegicus
# Test: DrugMatrix - Regimen: Daily Repeat
# Assay type: toxicity, organism-based, Sprague-Dawley
# Design: regimen Daily Repeat, gender Male, age 6-8 weeks
# Conditions: in vivo, po, route oral GAVAGE, vehicle .5 % CMC; for ABSOLUTE BASOPHIL / ABSOLUTE EOSINOPHIL / ABSOLUTE LYMPHOCYTE / ABSOLUTE MONOCYTE / ABSOLUTE SEGMENTED NEUTROPHIL / BASOPHIL / EOSINOPHIL / ERYTHROCYTE COUNT / HEMATOCRIT / HEMOGLOBIN / LEUKOCYTE COUNT / LYMPHOCYTE / MEAN CORPUSCULAR HEMOGLOBIN / MEAN CORPUSCULAR HEMOGLOBIN CONCENTRATION / MEAN CORPUSCULAR VOLUME / MONOCYTE / NEUTROPHIL / NUCLEATED RED BLOOD CELLS / PLATELET COUNT: tissue Blood; for ALANINE AMINOTRANSFERASE / ALBUMIN / ALKALINE PHOSPHATASE / ASPARTATE AMINOTRANSFERASE / BLOOD UREA NITROGEN / CARBON DIOXIDE / CHLORIDE / CHOLESTEROL / CREATINE PHOSPHOKINASE / CREATININE / GLUCOSE / LACTATE DEHYDROGENASE / LIPASE / PHOSPHORUS / POTASSIUM / SODIUM / TOTAL BILIRUBIN / TOTAL PROTEIN / URIC ACID: tissue Plasma
# [1] = 0 mg/kg, 72 h, dose level Control, time 3 day
# [2] = 0 mg/kg, 120 h, dose level Control, time 5 day
# [3] = 200 mg/kg, 72 h, dose level Low, time 3 day
compound,measurement,setting,value
CCC1=C(C)CN(C(=O)NCCc2ccc(S(=O)(=O)NC(=O)N[C@H]3CC[C@H](C)CC3)cc2)C1=O [GLIMEPIRIDE],ABSOLUTE BASOPHIL,[1],0 CELLS/uL
same,ABSOLUTE EOSINOPHIL,[1],0 CELLS/uL
same,ABSOLUTE LYMPHOCYTE,[1],12191.17 CELLS/uL
same,ABSOLUTE MONOCYTE,[1],183.17 CELLS/uL
same,ABSOLUTE SEGMENTED NEUTROPHIL,[1],1192.33 CELLS/uL
same,BASOPHIL,[1],0%
same,EOSINOPHIL,[1],0%
same,ERYTHROCYTE COUNT,[1],5.51 x10E6/uL
same,HEMATOCRIT,[1],35.45%
same,HEMOGLOBIN,[1],13.82 G/DL
same,LEUKOCYTE COUNT,[1],13.57 x10E3/uL
same,LYMPHOCYTE,[1],89.83%
same,MEAN CORPUSCULAR HEMOGLOBIN,[1],25.1 pg
same,MEAN CORPUSCULAR HEMOGLOBIN CONCENTRATION,[1],38.98 G/DL
same,MEAN CORPUSCULAR VOLUME,[1],64.42 fL
same,MONOCYTE,[1],1.33%
same,NEUTROPHIL,[1],8.83%
same,NUCLEATED RED BLOOD CELLS,[1],0 /100WBC
same,PLATELET COUNT,[1],1118.17 x10E3/uL
same,ALANINE AMINOTRANSFERASE,[1],55 u/L
same,ALBUMIN,[1],4.15 G/DL
same,ALKALINE PHOSPHATASE,[1],449.5 u/L
same,ASPARTATE AMINOTRANSFERASE,[1],112.83 u/L
same,BLOOD UREA NITROGEN,[1],17.33 mg/dL
same,CARBON DIOXIDE,[1],29.5 mmol/L
same,CHLORIDE,[1],101 MEQ/L
same,CHOLESTEROL,[1],70 mg/dL
same,CREATINE PHOSPHOKINASE,[1],1325.83 u/L
same,CREATININE,[1],0.18 mg/dL
same,GLUCOSE,[1],171.5 mg/dL
same,LACTATE DEHYDROGENASE,[1],386 u/L
same,LIPASE,[1],10 u/L
same,PHOSPHORUS,[1],11.57 mg/dL
same,POTASSIUM,[1],6.21 MEQ/L
same,SODIUM,[1],141.65 MEQ/L
same,TOTAL BILIRUBIN,[1],0.15 mg/dL
same,TOTAL PROTEIN,[1],5.75 G/DL
same,URIC ACID,[1],1.28 mg/dL
same,ABSOLUTE BASOPHIL,[2],0 CELLS/uL
same,ABSOLUTE EOSINOPHIL,[2],138.17 CELLS/uL
same,ABSOLUTE LYMPHOCYTE,[2],13283.17 CELLS/uL
same,ABSOLUTE MONOCYTE,[2],303.83 CELLS/uL
same,ABSOLUTE SEGMENTED NEUTROPHIL,[2],1308.17 CELLS/uL
same,BASOPHIL,[2],0%
same,EOSINOPHIL,[2],1%
same,ERYTHROCYTE COUNT,[2],5.32 x10E6/uL
same,HEMATOCRIT,[2],33.8%
same,HEMOGLOBIN,[2],13.63 G/DL
same,LEUKOCYTE COUNT,[2],15.03 x10E3/uL
same,LYMPHOCYTE,[2],88.33%
same,MEAN CORPUSCULAR HEMOGLOBIN,[2],25.68 pg
same,MEAN CORPUSCULAR HEMOGLOBIN CONCENTRATION,[2],40.35 G/DL
same,MEAN CORPUSCULAR VOLUME,[2],63.67 fL
same,MONOCYTE,[2],1.83%
same,NEUTROPHIL,[2],8.83%
same,NUCLEATED RED BLOOD CELLS,[2],0 /100WBC
same,PLATELET COUNT,[2],1097.5 x10E3/uL
same,ALANINE AMINOTRANSFERASE,[2],54.5 u/L
same,ALBUMIN,[2],4.27 G/DL
same,ALKALINE PHOSPHATASE,[2],337 u/L
same,ASPARTATE AMINOTRANSFERASE,[2],94.67 u/L
same,BLOOD UREA NITROGEN,[2],17 mg/dL
same,CARBON DIOXIDE,[2],28.33 mmol/L
same,CHLORIDE,[2],101.5 MEQ/L
same,CHOLESTEROL,[2],71.33 mg/dL
same,CREATINE PHOSPHOKINASE,[2],628.17 u/L
same,CREATININE,[2],0.19 mg/dL
same,GLUCOSE,[2],177.83 mg/dL
same,LACTATE DEHYDROGENASE,[2],500.5 u/L
same,LIPASE,[2],9.5 u/L
same,PHOSPHORUS,[2],12.3 mg/dL
same,POTASSIUM,[2],5.63 MEQ/L
same,SODIUM,[2],143.03 MEQ/L
same,TOTAL BILIRUBIN,[2],0.2 mg/dL
same,TOTAL PROTEIN,[2],6.02 G/DL
same,URIC ACID,[2],1.5 mg/dL
same,ABSOLUTE BASOPHIL,[3],0 CELLS/uL
same,ABSOLUTE EOSINOPHIL,[3],128.33 CELLS/uL
same,ABSOLUTE LYMPHOCYTE,[3],12992 CELLS/uL
same,ABSOLUTE MONOCYTE,[3],35 CELLS/uL
same,ABSOLUTE SEGMENTED NEUTROPHIL,[3],1711.33 CELLS/uL
same,BASOPHIL,[3],0%
same,EOSINOPHIL,[3],1%
same,ERYTHROCYTE COUNT,[3],5.2 x10E6/uL
same,HEMATOCRIT,[3],33.43%
same,HEMOGLOBIN,[3],13.5 G/DL
same,LEUKOCYTE COUNT,[3],14.87 x10E3/uL
same,LYMPHOCYTE,[3],87%
same,MEAN CORPUSCULAR HEMOGLOBIN,[3],26.03 pg
same,MEAN CORPUSCULAR HEMOGLOBIN CONCENTRATION,[3],40.4 G/DL
same,MEAN CORPUSCULAR VOLUME,[3],64.33 fL
same,MONOCYTE,[3],0.33%
same,NEUTROPHIL,[3],11.67%
same,NUCLEATED RED BLOOD CELLS,[3],0 /100WBC
same,PLATELET COUNT,[3],1286.33 x10E3/uL
same,ALANINE AMINOTRANSFERASE,[3],61.67 u/L
same,ALBUMIN,[3],4.23 G/DL
same,ALKALINE PHOSPHATASE,[3],355.67 u/L
same,ASPARTATE AMINOTRANSFERASE,[3],97.67 u/L
same,BLOOD UREA NITROGEN,[3],16.33 mg/dL
same,CARBON DIOXIDE,[3],24 mmol/L
same,CHLORIDE,[3],103.67 MEQ/L
same,CHOLESTEROL,[3],81.33 mg/dL
same,CREATINE PHOSPHOKINASE,[3],1168 u/L
same,CREATININE,[3],0.16 mg/dL
same,GLUCOSE,[3],150.33 mg/dL
same,LACTATE DEHYDROGENASE,[3],169.33 u/L
same,LIPASE,[3],10 u/L
same,PHOSPHORUS,[3],12.27 mg/dL
same,POTASSIUM,[3],5.69 MEQ/L
same,SODIUM,[3],144.2 MEQ/L
same,TOTAL BILIRUBIN,[3],0.13 mg/dL
same,TOTAL PROTEIN,[3],5.83 G/DL
same,URIC ACID,[3],1.53 mg/dL

# From ChEMBL document CHEMBL3885881, “DrugMatrix”
